# Assay results: patent US20090118470A1 (priority 2005, published 2009)
# Read-outs that look alike come from different tables or passages of the source.
# How the values were obtained:
# prions [1] = conditions: cited from earlier work; for effect on prions: alcohols alone
# [2] = tested on: 263K strain of scrapie agent; assay type: in vivo, Syrian gold hamsters; conditions: for inactivation factor: at 80° C.; for Mean incubation period ± SE: diseased animals only; for No. infected/No. injected: intracerebral inoculation
# prions [3] = conditions: cited from earlier work
compound,measurement,setting,value
CCCO [1-propanol],effect on prions,prions [1],do not have an effect on prions
CC(C)O [2-propanol],effect on prions,prions [1],do not have an effect on prions
"O [100% water, water]",inactivation factor,[2],about 10
same,Infectivity titre ± SE,[2]; heat treatment 80° C./20 min.,7.2 ± 0.7 log ID50 per sample
same,Mean incubation period ± SE,[2]; heat treatment 80° C./20 min.,78 ± 4 days
same,No. infected/No. injected,[2]; heat treatment 80° C./20 min.,5/5
same,Infectivity titre ± SE,[2]; heat treatment 90° C./20 min.,6.2 ± 0.2 log ID50 per sample
same,Mean incubation period ± SE,[2]; heat treatment 90° C./20 min.,85 ± 1 days
same,No. infected/No. injected,[2]; heat treatment 90° C./20 min.,5/5
same,Infectivity titre ± SE,[2]; heat treatment 100° C./20 min.,5.0 ± 0.1 log ID50 per sample
same,Mean incubation period ± SE,[2]; heat treatment 100° C./20 min.,97 ± 1 days
same,No. infected/No. injected,[2]; heat treatment 100° C./20 min.,5/5
"CCCCCCCCCCCCOS(=O)(=O)[O-].[Na+] [SDS, Sodium dodecylsulfate]",residual infectivity after treatment,"prions [1]; heated in SDS solution (3% or greater; 0.10 M) for at least ten minutes, without autoclaving",Some residual infectivity remains
CCO [ethanol],effect on prions,prions [1],do not have an effect on prions
OCC(O)CO [glycerol],inactivation factor,[2],< 10
Cl.N=C(N)N [guanidinium hydrochloride],conversion of prions into an irregular coiled structure,prions [3]; 6 N guanidinium hydrochloride (573 g/l),complete conversion
NC(N)=O [urea],conversion of prions into an irregular coiled structure,prions [3]; 8 N urea (480 g/l),complete conversion
guanidinium isothiocyanate,prion inactivation,"prions [1]; concentration of 3 M, immersion times longer than 1 hour",inactivates prions
same,illness of experimental animals after intracerebral inoculation,"prions [1]; concentration of 4 M, at least 15 minutes residence time",no experimental animal in various experiments is reported to become ill
same,denaturing effect,prions [3]; 1.5 N solution (177 g/l),partially denaturing effect
